The values that follow come from patent US20180326022A1, “COMPOSITIONS AND METHODS FOR IMPROVING HEART FUNCTION AND TREATING HEART FAILURE” (The Trustees of the University of Pennsylvania, priority 2017, published 2018).

The subject of one test is rat adult cardiomyocytes. The test is described as follows: Immunofluorescence quantification of α- and dTyr-tubulin fraction of cell area. Type of test: cell-based. How it is done:
(§1) Viral constructs were permitted to express for 24-72 hours with Moi=100-200. Parthenolide (Fisher Scientific NC9013142) treatment was carried out at room temperature for 2 hours at 10 μM. All experiments were performed within 48 hours of isolation, except those involving shTTL, which were allowed 72 hours to improve knockdown efficiency.
Cells were fixed in 4% PFA for 15 minutes and permeabilized in 0.5% TritonX-100 for 4 minutes at room temperature. Alternately cells were fixed in methanol at −20° C. for 7 minutes. After washing, cells were placed in blocking buffer (5% BSA and 0.1% TritonX-100 in PBS) for 1 hour, then labeled with primary antibodies (below) for 24-48 hours at 4° C. Cells were then washed 4× in blocking buffer, labeled with secondary antibodies (below) at room temperature and washed 3× in blocking buffer. Stained cells were mounted on mouse laminin coated #1.5 coverslips in Prolong Gold Antifade Mountant (Life Technologies P36934) for imaging.
Confocal imaging was carried out on a Zeiss 780 laser scanning confocal scan head operating on an Axiovert Z1 inverted microscope equipped with a 40× oil 1.4 NA objective. High-speed super resolution imaging was carried out on a Zeiss 880 Airyscan confocal with a 63×1.4 oil NA objective (FIG. 8A-FIG. 8E, Airyscan application note can be found at http://www.zeiss.com/microscopy/enus/products/confocal-microscopes/Ism-880-with-airyscan-.html#downloads). Image analysis was performed using ZEN Black software for Airyscan processing, which involves signal integration from the 32 separate sub-resolution detectors in the Airyscan detector and subsequent deconvolution of this integrated signal (FIG. 8A-FIG. 8E). Additional signal processing was performed in Image J (NIH). For calculating the microtubule fraction of cell area (FIG. 2B-FIG. 2C), image analysis was performed blinded to the experimental treatment groups. A 1.5 μm max intensity projection was produced from 3 0.5 μm confocal z-sections. […] From the resulting binary images (FIG. 9B), the microtubule positive fraction of the total cell area was calculated for alpha and detyrosinated tubulin (FIG. 2C).

Test [1] concerns primary adult rat cardiomyocytes. The test is described as follows: Cell contractility (sarcomere shortening, 1 Hz pacing). Type of test: cell-based. To be noted: rat cardiomyocytes, 1 Hz; PTL 10 μM 2 hours. How it is done: as §1
Experiments were performed in custom-fabricated cell chambers (Ionoptix) mounted on an LSM Zeiss 780 inverted confocal microscope using a 40× oil 1.4 NA objective and transmitted light camera (IonOptix MyoCam-S). For contractility assays, cells were maintained in NT solution and electrical field stimulation was provided at 1 Hz with a myopacer (IonOptix MYP100) through platinum electrodes lowered into the bath. Sarcomere length was measured optically by Fourier transform analysis (IonWizard, IonOptix). After 15 s of 1 Hz pacing to achieve steady state, five traces were recorded and analyzed.

The next test has as its system isolated cardiomyocytes. Nature of the test: Atomic force microscopy viscoelasticity (Standard Linear Solid Model). Type of test: cell-based, rat. To be noted: mean(SEM). On the procedure: The elastic modulus of isolated cardiomyocytes was measured using AFM indentation. Optical microscopy and AFM were performed simultaneously using an MFP3D AFM (Asylum Research) combined with an inverted Nikon TE-2000U microscope equipped with a Nikon 100×, 1.49 NA objective. TTL expression was determined by dsRED fluorescence captured via 532 nm laser excitation (CrystaLaser) and a CCD camera (Cascade-512B, Photometrics) at 900 ms exposure time controlled through the NIS Elements software package. […] Modulus characterization of myocytes was performed using 4.26 μm radius (R below) SiO2 microparticle epoxied to SiN cantilevers with nominal spring constant 0.03 N/m (CP-PNPS-SiO-A, Nano And More, USA). Cantilever spring constants were manually calibrated in air by thermal vibrations using the MFP3D prior to each experiment using a clean glass substrate. Inverse optical lever sensitivity was determined in myocyte buffer solution prior to each round of measurements.
Elastic moduli were determined by fitting the indentation curve to the Hertz model (Eq. 17) adjusted for a spherical indenter using the Asylum Research built in analysis software.
E is the elastic modulus, υ, is the cell Poisson ratio and δ is the indentation depth. Transverse compression of the cardiomyocyte is performed over a range of indentation speeds and the indentation speed is divided by the total indentation depth to obtain an effective indentation rate, f. Viscosity and velocity dependent elastic moduli were then derived by fitting each myocyte to a Standard Linear Solid Model: […]

For another test, the system named is human myocytes. The test is described as follows: Cell contractility of human myocytes (0.5 Hz). Format: cell-based. How it is done:
Viable myocytes were concentrated by gravity (5-7 min) and supernatant was aspirated to remove dead cells. Myocytes were resuspended in NT solution containing 1 mM Ca^2+ and concentrated by gravity (5-7 min) again. Cardiomyocytes used acutely were maintained in NT solution for up to 6 hours. Myocytes were treated with 10 μM parthenolide (Fisher Scientific NC9013142 or Sigma P0667) or 10 μM colchicine (Sigma) at room temperature in NT solution for 2 hours. Experiments were performed within 6 hours of isolation, except for those involving viral transduction in cultured cells.
MatTek glass bottom dish was coated 5 μl of 0.5 mg/ml laminin and air dried for 10 min. Culture medium was F-10 (1×) Nutrient Mixture (Ham) [+] L-Glutamine (Life Technologies, 11550-043) supplemented with insulin-transferrin selenium-X (Gibco, 51500-056), 20 mM HEPES, 1 μg/μl primocin (Invivogen, ant-pm-1), 0.4 mM extra CaCl2, 5% FBS, 25 μM cytochalasin D (Cayman, 11330). Viable myocytes were concentrated and a proper amount of medium was added in culture so that neighboring cells were not in direct contact. Viral constructs were permitted to express for 48 hours with Moi=100-200. Adenoviral TTL-IRES-dsRed and EMTB-3x GFP were transduced in human myocytes as previously performed in rat myocytes. Myocytes were replenished with fresh warm medium without cytochalasin D before calcium and contractility measurements.
Experiments were performed as described in Example 1 with some modification. Contractility is measured in custom-fabricated cell chambers (Ionoptix) mounted on an LSM Zeiss 880 inverted confocal microscope using a 40× oil 1.4 NA objective and transmitted light camera (IonOptix MyoCam-S). Myoyctes were maintained in NT solution (for freshly isolated myocytes) or culture medium (without cytochalasin D, for cultured myocytes) at room temperature and electrical field stimulation was provided at 0.5 Hz with a myopacer (IonOptix MYP100) through platinum electrodes lowered into the bath. Sarcomere length was measured optically by Fourier transform analysis (IonWizard, IonOptix). After 10-30 s of 0.5 Hz pacing to achieve steady state, five traces were recorded and analyzed. If not specified, contractility data was obtained at room temperature.
To test whether the contractile improvement over MT destabilization remains under more physiological conditions, both 0.5 Hz and 1 Hz contractions at 37 C were recorded and analyzed in a small subset of isolated human myocytes (1 NF and 1 failing heart, FIG. 29C).

Where [2] appears, read: rat cardiomyocytes, thresholded immunofluorescence, TTL vs null, PTL vs ctrl.

The structures appear in SMILES notation.

Consider `C=C1C(=O)O[C@H]2[C@H]1CC/C(C)=C/CC[C@@]1(C)O[C@@H]21` [PTL, 4,5-epoxygermacra-1(10),11(13)-dien-12,6-olactone], for which the “effect on MT network density” value in the test with rat adult cardiomyocytes (PTL treatment) was “no effect”. Besides, the “reduction in the amount/fraction of polymerized, detyrosinated MTs” value in the test with rat adult cardiomyocytes (isolated rat cardiomyocytes, immunofluorescence and immunoblot) is given as 2 fold. In the test on rat adult cardiomyocytes (setting [2]), the “Detyr (% cell area)” value worked out at 30.8 % cell area and the “α-tub (% cell area)” value is on record as 67.8 % cell area. For the same compound, in test [1], the “Resting SL (μm)” value was 1.803 μm, the “Vmax (μm/s)” value is −5.35 μm/s, the “Vmin (μm/s)” value was 4.28 μm/s and the “ΔSL (μm)” value was 0.201 μm. Further, the “η (Pa*s)” value in the test with isolated cardiomyocytes (SLSM-fit derived viscosity) was 38.8(8.0) Pa*s. In the test with isolated cardiomyocytes (velocity-dependent elastic modulus), the “E2 (Pa)” value was 215.3(25.0) Pa. In addition, the “E1 (Pa)” value in the test with isolated cardiomyocytes (velocity-independent elastic modulus) is 170.6(22.5) Pa. Besides, in the test with human myocytes (NF human myocytes, 10 μM PTL), the “late phase of relaxation” value is given as “slightly prolonging”. Moreover, in the test with human myocytes (failing human myocytes), the “restoration of lost function (contractile velocities vs NF benchmark)” value was approximately 50%. In addition, in the test on human myocytes (failing human myocytes, 10 μM, 2 hours), the “shortening amplitude and velocity, speed of relaxation” value is “robustly improved”.
